Laboratory results as given in patent US12678446B2 (PFIZER INC., priority 2020, dated 2026).
pEC50: −log10 of the molar value.

What was measured:
[1] = test system: RSV (RSV A2 ECACC, 0709161v); assay: RSV plaque reduction assay; format: cell-based, respiratory syncytial virus; settings: human respiratory syncytial virus, HepG2, read-out: RSV A2 Plaque EC50, RSV A2 in Hep-G2 cells; mean of at least two experiments unless noted (n = 1)
Protocol: Compounds w ere subjected to RSV plaque reduction assays according to the following protocol.
Hep-G2 cells (ECACC, 85011430) were passaged in flasks and seeded in 24-well plates in DMEM containing antibiotics and supplemented with 10% FBS. During inoculation and subsequent incubation, cells were cultured in DMEM containing 2% FBS. 100 plaque forming unit/well of RSV (RSV A2 ECACC, 0709161v) was mixed with eight serial dilutions of compound. Subsequently, 100 μL of the virus/compound mixtures was added to confluent Hep-G2 cell monolayers. The cells and virus/compound mixtures were incubated at 37° C. in a humidified 5% CO2 incubator for 2 h prior to removal of the inoculum and addition of 1 mL of overlay (DMEM containing 2% FBS and 0.8% CMC) containing compound dilutions. The cells and were incubated at 37° C. in a humidified 5% CO2 incubator for 2 days.
Cells were washed with PBS before adding 75/25% v/v EtOH MeOH, for 3 min. Fixative was removed and plates were washed with PBS. A pre-titrated amount of the primary antibody was added in 200 μL PBS/2% milk powder, and plates incubated for 90 min at 37° C. The plates were washed 3 times with PBS/0.05% Tween20 before addition of rabbit anti-goat horse radish peroxidase in 200 μL PBS/2% milk powder, and incubated for 1 h at 37° C. Following three wash steps with PBS/0.05% Tween20, 200 μL ready-to-use TrueBlue was added and plates were incubated at rt for 10-15 min before washing with water. After removal of water, plates were air-dried in the dark.
Plates were scanned and analysed using the Immunospot S6 Macro analyser, which is equipped with BioSpot analysis software for counting immunostained plaques (virospots). Plaque counts were used to calculate % infection relative to the mean of the plaque count in the virus control wells for RSV. […] Unless otherwise noted, plaque EC50 and cell toxicity CC50 values are a mean of at least two experiments and figures are rounded to whole units.

cell toxicity CC50 = format: cell-based; settings: human; Hep-G2 cells; mean of at least two experiments; read-out: Cell Cytotoxicity CC50

SMILES | pEC50 [1] | CC50 (cell toxicity CC50) [nM]
CSc1ccc(-c2nn3c(c2C(=O)N[C@H]2N=C(c4ccccc4)c4cccc(F)c4NC2=O)OCCC3)c(F)c1 [Example 193, 2-(2-Fluoro-4-methylsulfanylphenyl)-N-[(3S)-9-fluoro-2-oxo-5-phenyl-1,3-dihydro-1,4-benzodiazepin-3-yl]-6,7-dihydro-5H-pyrazolo[5,1-b][1,3]oxazine-3-carboxamide] | 7.72 | > 25000
O=C(N[C@H]1N=C(c2ccccc2)c2cccc(F)c2NC1=O)c1c(-c2ccccc2F)nn2c1OC(CO)CC2 (single isomer, unassigned) [Example 190-1, (5R*)-N-[(3S)-9-Fluoro-2-oxo-5-phenyl-1,3-dihydro-1,4-benzodiazepin-3-yl]-2-(2-fluorophenyl)-5-(hydroxymethyl)-6,7-dihydro-5H-pyrazolo[5,1-b][1,3]oxazine-3-carboxamide] | 7.01 | > 25000
O=C(N[C@H]1N=C(c2ccccc2)c2cccc(F)c2NC1=O)c1c(-c2ccccc2F)nn2c1OCCC2 [Example 21, N-[(3S)-9-fluoro-2-oxo-5-phenyl-1,3-dihydro-1,4-benzodiazepin-3-yl]-2-(2-fluorophenyl)-6,7-dihydro-5H-pyrazolo[5,1-b][1,3]oxazine-3-carboxamide] | 7.19 | > 25000
CCc1ncc(-c2nn3c(c2C(=O)N[C@H]2N=C(c4ccccc4)c4cccc(F)c4NC2=O)O[C@H](C)CC3)cn1 [Example 60, (5R)-2-(2-Ethylpyrimidin-5-yl)-N-[(3S)-9-fluoro-2-oxo-5-phenyl-1,3-dihydro-1,4-benzodiazepin-3-yl]-5-methyl-6,7-dihydro-5H-pyrazolo[5,1-b][1,3]oxazine-3-carboxamide] | 6.78 | > 25000
CCN(CC)CC1COc2c(C(=O)N[C@H]3N=C(c4ccccc4)c4cccc(F)c4NC3=O)c(-c3ccccc3F)nn2C1 (stereo partly drawn) [Example 164, 6-(Diethylaminomethyl)-N-[(3S)-9-fluoro-2-oxo-5-phenyl-1,3-dihydro-1,4-benzodiazepin-3-yl]-2-(2-fluorophenyl)-6,7-dihydro-5H-pyrazolo[5,1-b][1,3]oxazine-3-carboxamide] | 7.06 | > 25000
CCC1COc2c(C(=O)N[C@H]3N=C(c4ccccc4)c4cccc(F)c4NC3=O)c(-c3ccccc3F)nn2C1 (stereo partly drawn) [Example 11, 6-Ethyl-N-[(3S)-9-fluoro-2-oxo-5-phenyl-2,3-dihydro-1H-1,4-benzodiazepin-3-yl]-2-(2-fluorophenyl)-5H,6H,7H-pyrazolo[3,2-b][1,3]oxazine-3-carboxamide] | 7.48 | > 25000
CCc1ccc(-c2nn3c(c2C(=O)N[C@H]2N=C(c4ccccc4)c4cccc(F)c4NC2=O)O[C@H](C)CC3)c(C)n1 [Example 66, (5R)-2-(6-Ethyl-2-methyl-3-pyridyl)-N-[(3S)-9-fluoro-2-oxo-5-phenyl-1,3-dihydro-1,4-benzodiazepin-3-yl]-5-methyl-6,7-dihydro-5H-pyrazolo[5,1-b][1,3]oxazine-3-carboxamide] | 7.22 | > 25000
C[C@@H]1CCn2nc(-c3cncc(Cl)c3)c(C(=O)N[C@H]3N=C(c4ccccc4)c4ccccc4NC3=O)c2O1 [Example 46, (5R)-2-(5-Chloropyridin-3-yl)-5-methyl-N-[(3S)-2-oxo-5-phenyl-1,3-dihydro-1,4-benzodiazepin-3-yl]-6,7-dihydro-5H-pyrazolo[5,1-b][1,3]oxazine-3-carboxamide] | 6.92 | > 25000
C[C@H]1COc2c(C(=O)N[C@H]3N=C(c4ccccc4)c4cccc(F)c4NC3=O)c(-c3ccccc3F)nn2C1 [Example 10, (6R)-N-[(3S)-9-fluoro-2-oxo-5-phenyl-1,3-dihydro-1,4-benzodiazepin-3-yl]-2-(2-fluorophenyl)-6-methyl-6,7-dihydro-5H-pyrazolo[5,1-b][1,3]oxazine-3-carboxamide] | 7.64 | > 25000
C[C@@H]1CCn2nc(C3CCN(S(C)(=O)=O)CC3)c(C(=O)N[C@H]3N=C(c4ccccc4)c4ccccc4NC3=O)c2O1 [Example 162, (5R)-5-Methyl-2-(1-methylsulfonylpiperi-din-4-yl)-N-[(3S)-2-oxo-5-phenyl-1,3-dihydro-1,4-benzodiazepin-3-yl]-6,7-dihydro-5H-pyrazolo[5,1-b][1,3]oxazine-3-carboxamide] | 6.78 | > 25000
CCn1cc(-c2nn3c(c2C(=O)N[C@H]2N=C(c4ccccc4)c4cccc(F)c4NC2=O)OCCC3)cn1 [Example 99, 2-(1-Ethylpyrazol-4-yl)-N-[(3S)-9-fluoro-2-oxo-5-phenyl-1,3-dihydro-1,4-benzodiazepin-3-yl]-6,7-dihydro-5H-pyrazolo[5,1-b][1,3]oxazine-3-carboxamide] | 7.15 | > 25000
Cc1cnc(F)c(-c2nn3c(c2C(=O)N[C@H]2N=C(c4ccccc4)c4cccc(F)c4NC2=O)OCCC3)c1 [Example 43, 2-(2-Fluoro-5-methylpyridin-3-yl)-N-[(3S)-9-fluoro-2-oxo-5-phenyl-1,3-dihydro-1,4-benzodiazepin-3-yl]-6,7-dihydro-5H-pyrazolo[5,1-b][1,3]oxazine-3-carboxamide] | 7.00 | > 25000
O=C(N[C@H]1N=C(c2ccccc2)c2cccc(F)c2NC1=O)c1c(-c2ccc(F)cc2F)nn2c1OCC(CO)C2 (stereo partly drawn) [Example 128, 2-(2,4-Difluorophenyl)-N-[(3S)-9-fluoro-2-oxo-5-phenyl-1,3-dihydro-1,4-benzodiazepin-3-yl]-6-(hydroxymethyl)-6,7-dihydro-5H-pyrazolo[5,1-b][1,3]oxazine-3-carboxamide] | 7.39 | > 25000
C[C@@H]1CCn2nc(-c3ccc(S(=O)(=O)N(C)C)cc3F)c(C(=O)N[C@H]3N=C(c4ccccc4)c4cccc(F)c4NC3=O)c2O1 [Example 200, (5R)-2-[4-(Dimethylsulfamoyl)-2-fluorophenyl]-N-[(3S)-9-fluoro-2-oxo-5-phenyl-1,3-dihydro-1,4-benzodiazepin-3-yl]-5-methyl-6,7-dihydro-5H-pyrazolo[5,1-b][1,3]oxazine-3-carboxamide] | 9.00 | > 25000
O=C(N[C@H]1N=C(c2ccccc2)c2cccc(F)c2NC1=O)c1c(-c2ccccc2F)nn2c1OCC1(CC1)C2 [Example 13] | 7.55 | > 24000
C[C@@H]1CCn2nc(Nc3ccccc3)c(C(=O)N[C@H]3N=C(c4ccccc4)c4ccccc4NC3=O)c2O1 [Example 96, (5R)-2-Anilino-5-methyl-N-[(3S)-2-oxo-5-phenyl-1,3-dihydro-1,4-benzodiazepin-3-yl]-6,7-dihydro-5H-pyrazolo[5,1-b][1,3]oxazine-3-carboxamide] | 6.33 | > 25000
CC(C)n1cc(-c2nn3c(c2C(=O)N[C@H]2N=C(c4ccccc4)c4ccccc4NC2=O)OCCC3)cn1 [Example 103, N-[(3S)-2-oxo-5-phenyl-1,3-dihydro-1,4-benzodiazepin-3-yl]-2-(1-propan-2-ylpyrazol-4-yl)-6,7-dihydro-5H-pyrazolo[5,1-b][1,3]oxazine-3-carboxamide] | 6.88 | > 25000
Cc1cc(-c2nn3c(c2C(=O)N[C@H]2N=C(c4ccccc4)c4cccc(F)c4NC2=O)O[C@H](C)CC3)c(F)cn1 [Example 79, (5R)-2-(5-Fluoro-2-methylpyridin-4-yl)-N-[(3S)-9-fluoro-2-oxo-5-phenyl-1,3-dihydro-1,4-benzodiazepin-3-yl]-5-methyl-6,7-dihydro-5H-pyrazolo[5,1-b][1,3]oxazine-3-carboxamide] | 6.94 | > 25000
O=C(N[C@H]1N=C(c2ccccc2)c2cccc(F)c2NC1=O)c1c(-c2cnn(CC(F)(F)F)c2)nn2c1OCCC2 [Example 150, N-[(3S)-9-fluoro-2-oxo-5-phenyl-1,3-dihydro-1,4-benzodiazepin-3-yl]-2-[1-(2,2,2-trifluoroethyl)pyrazol-4-yl]-6,7-dihydro-5H-pyrazolo[5,1-b][1,3]oxazine-3-carboxamide] | 7.21 | > 25000
Cc1cccc(F)c1-c1nn2c(c1C(=O)N[C@H]1N=C(c3ccccc3)c3cccc(F)c3NC1=O)OCCC2 [Example 140, 2-(2-Fluoro-6-methylphenyl)-N-[(3S)-9-fluoro-2-oxo-5-phenyl-1,3-dihydro-1,4-benzodiazepin-3-yl]-6,7-dihydro-5H-pyrazolo[5,1-b][1,3]oxazine-3-carboxamide] | 7.42 | > 25000
C[C@H]1CCn2nc(-c3cnn(C4CCOCC4)c3)c(C(=O)N[C@H]3N=C(c4ccccc4)c4cccc(F)c4NC3=O)c2O1 [Example 156, (5S)-N-[(3S)-9-fluoro-2-oxo-5-phenyl-1,3-dihydro-1,4-benzodiazepin-3-yl]-5-methyl-2-[1-(oxan-4-yl)pyrazol-4-yl]-6,7-dihydro-5H-pyrazolo[5,1-b][1,3]oxazine-3-carboxamide] | 7.41 | > 25000
